Test results as given in patent publication US20150292045A1, “ALTERNATIVE USES FOR HBV ASSEMBLY EFFECTORS” (INDIANA UNIVERSITY RESEARCH AND TECHNOLOGY CORPORATION, priority 2012, published 2015).
Like-named read-outs stand apart in the source and are kept apart here.

What was measured:
HBV RNA = assay: Transient transfection of Huh-7 cells, cytoplasmic RNA quantified by RT-PCR; format: cell-based, hepatitis B virus; conditions: for EC50: Hepatitis B virus
Method: FIG. 7 Several compounds were used to treat a transient transfection of Huh-7 cells (Huh-7 is a well differentiated hepatocyte derived cellular carcinoma cell line). Cytoplasmic RNA was harvested and quantified by RT-per. Treatment/dynamic range/ED50: DMSO/1.6/NA; AT130/25/0.5 μM; HAP13/20/5 μM; HAP12/36/0.5 μM.
(§1) CpAMs were used to treat a transient transfection of huh7 cells. Cytoplasmic RNA was harvested and quantified by RT-per. The transfection system is described by Lentz and Loeb (Lentz and Loeb (2010) J Virol Methods 169, 52-60.) Fresh medium with drug was added to cultured cells daily for four days at concentrations from 0.001 to 10 micromolar. The two points at 0.00001 are both controls where there was no drug and no DMSO. The controls and the DMSO-treated cells had similar amounts of RNA. […] (See FIG. 7)

HBV [1] = assay: Suppression of secreted HBV DNA synthesis; format: cell-based; conditions: Hepatitis B virus
Method: Antiviral activity was measured using an inducible HBV expression system, AD38 cells. (Ladner, S. K. et al., Antimicrob Agents Chemother 41, 1715-20 (1997)). Initial experiments tested the activity of 10 μM HAP (percentage viral assembly at 24 hour). For active molecules, effective concentrations were determined for suppression of HBV production by 50% and by 90%; this value is reported in μM. Compound toxicity was tested in the parent cell line, HepG2. This is reported as the concentration required to suppress cell growth by 50%, CC50 (in μM) and as the ratio of CC50/EC50, also known as the therapeutic index. As a control and for comparison, the results for the nucleoside analog 3TC (lamivudine) also described.
as §1

HBV [2] = assay: HepG2 cells transfected with linear full-length HBV DNA: capsid-associated HBV-DNA, cccDNA and pgRNA by real-time PCR; format: cell-based, hepatitis B virus genotype A
From the text: a) In HepG2 cells transfected with monomeric linear full length HBV pgRNA and HBV replication are dependent on cccDNA formation, chromatinization and transcription. b) Cytoplasmic HBV core particles were isolated from untreated and HAP12-treated cells at the indicated time points after transfection. Results are expressed as number of HBV DNA copies per transfected cells. c) cccDNA accumulation in untreated and HAP12-treated HepG2 cells transfected with wild type HBV genomes. qPCR analysis was performed using selective cccDNA primers to amplify cccDNA and beta-globin primers to normalize the DNA samples. Results are expressed as number of cccDNA copies per transfected cells. d) mRNAs were prepared from untreated and […] HepG2 cells transfected with wild type HBV genomes and harvested at the indicated times post-transfection. Specific primers were utilized to quantify the HBV pregenomic RNA and GAPDH amplification was used to normalize for equal loading of each RNA sample. All histograms show mean values from two independent experiments; bars indicate standard deviations (SD)
(§2) The activity of the hetero-aryl-dihydropyrimidine HAP12 compound on capsid-associated HBV-DNA (TaqMan real-time PCR), cccDNA (TaqMan real-time PCR) (Werle-Lapostolle, Gastroenterology 2004) and pgRNA levels (quantitative realtime PCR) (Belloni, PNAS 2009) were assessed in three in vitro HBV replication models:
a) HepG2 cells transfected with a linear full-length genotype A HBV DNA (Gunther, J Virol 1995; Pollicino, Gastroenterology 2006);

HBV [3] = assay: AD38 stable cell line (tetracycline removal): cytoplasmic core particle HBV DNA and pgRNA; format: cell-based, hepatitis B virus genotype D; conditions: AD38 cells, treatment started at day 0 or day 6
From the text: FIG. 5 HAP12 targets cccDNA transcription in AD38 cells. […] The cccDNA pool is built up from the recycling of mature core particles to the nucleus after HBV replication is started from the pgRNA initially transcribed from the “tet-regulated” HBV integrated DNA (b). HAP12 treatment is started at day 0 (left panels) or day 6 (right panels). c) Cytoplasmic HBV core particles, and total mRNAs (d) were isolated from untreated and HAP12-treated cells at the indicated time points. HBV DNA, cccDNA and pgRNA results are expressed as in FIG. 2. All histograms show mean values from two independent experiments; bars indicate standard deviations (SD).
as §2
c) the AD38 cells are a stable HepG2-derived HBV genotype D clone that, upon tetracycline removal, expresses pgRNA,
assembles subviral particles in the cytoplasm, accumulates cccDNA in the nucleus and secretes HBV virions in the cell supernatant (Ladner, J Virol 1997).

HBV [4] = assay: HepG2 H1.3 HBV stable clone: capsid-associated HBV-DNA, cccDNA and pgRNA by real-time PCR; format: cell-based, hepatitis B virus genotype D
From the text: HAP12 treatment is started at day 10 of “differentiation” when HBV replication is high and the cccDNA pool is expanded. pgRNA is transcribed from both cccDNA and integrated HBV. b) Cytoplasmic HBV core particles, nuclear cccDNA (c) and total mRNAs (d) were isolated from untreated and HAP12-treated cells at the indicated time points. HBV-DNA, cccDNA and pgRNA results are expressed as in FIG. 2. Histograms show mean values from two independent experiments; bars indicate standard deviations (SD).
By treating the HepG2 H1.3 cells with HAP12 before the establishment of the cccDNA pool it was shown that cccDNA formation and accumulation […] by HAP12. Under these conditions the effect on HBV replication is maximal. a) HAP12 treatment is started at day 0 of “differentiation” when HBV replication and cccDNA levels are very low. b) Cytoplasmic HBV core particles, nuclear cccDNA (c) and total mRNAs (d) were isolated from untreated and HAP12-treated cells at the indicated time points. HBV-DNA, cccDNA and pgRNA results are expressed as in FIG. 2. Histograms show mean values from two independent experiments; bars indicate standard deviations (SD).
as §2
b) the HepG2 H1.3 genotype D HBV stable clone that accumulates cccDNA when cultured in “conditioned” medium at high confluence (Protzer, Gastroenterology 2007; Lucifora, J Hepatol 2011);

[5] = test system: HBc binding to the cccDNA; assay: cccDNA ChIP assay in HepG2 H1.3 cells; format: cell-based, hepatitis B virus; conditions: 10 days treatment
From the text: FIG. 6 HAP12 interferes with HBc binding to the cccDNA. It is herein described that using a cccDNA ChIP assay (a), that HBc is recruited onto the cccDNA in HBV replicating HepG2 cells (b) and in the HepG2 H1.3 stable cell line. […] It is believe that this finding is in agreement with the observed inhibition of cccDNA transcription and pgRNA production in HAP12 treated cells. HAP12 treatment is started at day 10 of HepG2 H1.3 cells “differentiation” (see legend to FIG. 3). Cross-linked chromatin was prepared from untreated and HAP12-treated cells at TO (before treatment, 10 gg “differentiation”) and at T10 (10 days of exposure to HAP12, 20 gg from beginning of […], #H1905-15). ChIPped chromatin was analyzed by qPCR with HBV cccDNA selective primers. Results are expressed as % of input. Histograms show mean values from two independent experiments; bars indicate standard deviations (SD).
Recruitment of HBc and cccDNA bound histones modifications were assessed using the cccDNA ChIP assay (Pollicino, 2006)

[6] = Huh-7, 96 h, huh7 transient transfection, drug daily for four days, read-out: EC50 for RNA suppression
[7] = Huh-7 transient transfection, read-out: ED50 (cytoplasmic RNA)
[8] = HepG2 H1.3, treatment started at day 0, before establishment of the cccDNA pool
[9] = HepG2 H1.3, treatment started at day 10 of differentiation

| Structure (SMILES) | EC50 (HBV RNA; [6]) [nM] | EC50 (HBV RNA; [7]) [nM] | dynamic range (cytoplasmic RNA) (HBV RNA; Huh-7 transient transfection) | EC50 (HBV [1]) [nM] | decrease in cccDNA levels (HBV [2]) [%] | suppression of HBV replication (HBV [2]; 72 and 96 hrs) | peak reduction of pgRNA transcription (HBV [2]; at 96 hours) [%] | effect on HBV replication (HBV [3]) | effect on pgRNA transcription (HBV [3]) | cccDNA formation/accumulation (HBV [4]; [8]) | effect on HBV replication (HBV [4]; [8]) | effect on HBV replication (HBV [4]; [9]) | effect on pgRNA transcription (HBV [4]; [9]) | cccDNA HBc occupancy [5] | cccDNA-bound H3 histone acetylation [5] |
| --- | --- | --- | --- | --- | --- | --- | --- | --- | --- | --- | --- | --- | --- | --- | --- |
| COC(=O)C1=C(CN2CCNCC2)NC(c2ccccn2)=NC1c1ccc(F)cc1Cl (centres unmarked) [HAP13] | 5000 | 5000 | 20 | 6100 |  |  |  |  |  |  |  |  |  |  |  |
| COC(=O)C1=C(CN2CCOCC2)NC(c2ccccn2)=NC1c1ccc(F)cc1Cl (centres unmarked) [HAP12] | 500 | 500 | 36 | 12 | ~30 | complete suppression | > 50 | inhibitory effect | inhibitory effect | does not prevent | maximal | inhibitory effect | inhibitory effect | strongly inhibited | sharp decrease |
| COc1ccccc1/C(Br)=C(\NC(=O)c1ccc([N+](=O)[O-])cc1)C(=O)N1CCCCC1 [AT130, (E)-N-(1-Bromo-1-(2-methoxyphenyl)-3-oxo-3-(piperidin-1-yl)prop-1-en-2-yl)-4-nitrobenzamide] | 500 | 500 | 25 | 2400 |  |  |  |  |  |  |  |  |  |  |  |
